Laboratory results published in patent US8143290B2, “Chemical compounds 572” (AstraZeneca AB, priority 2006, dated 2012).
pIC50: −log10 of the molar value.

Target: T1, recombinant human GR (Homo sapiens, UniProt P04150)
T1 construct: purchased Panvera/Invitrogen P2812 (kit P2893)
T1 sequence (P04150 1-777): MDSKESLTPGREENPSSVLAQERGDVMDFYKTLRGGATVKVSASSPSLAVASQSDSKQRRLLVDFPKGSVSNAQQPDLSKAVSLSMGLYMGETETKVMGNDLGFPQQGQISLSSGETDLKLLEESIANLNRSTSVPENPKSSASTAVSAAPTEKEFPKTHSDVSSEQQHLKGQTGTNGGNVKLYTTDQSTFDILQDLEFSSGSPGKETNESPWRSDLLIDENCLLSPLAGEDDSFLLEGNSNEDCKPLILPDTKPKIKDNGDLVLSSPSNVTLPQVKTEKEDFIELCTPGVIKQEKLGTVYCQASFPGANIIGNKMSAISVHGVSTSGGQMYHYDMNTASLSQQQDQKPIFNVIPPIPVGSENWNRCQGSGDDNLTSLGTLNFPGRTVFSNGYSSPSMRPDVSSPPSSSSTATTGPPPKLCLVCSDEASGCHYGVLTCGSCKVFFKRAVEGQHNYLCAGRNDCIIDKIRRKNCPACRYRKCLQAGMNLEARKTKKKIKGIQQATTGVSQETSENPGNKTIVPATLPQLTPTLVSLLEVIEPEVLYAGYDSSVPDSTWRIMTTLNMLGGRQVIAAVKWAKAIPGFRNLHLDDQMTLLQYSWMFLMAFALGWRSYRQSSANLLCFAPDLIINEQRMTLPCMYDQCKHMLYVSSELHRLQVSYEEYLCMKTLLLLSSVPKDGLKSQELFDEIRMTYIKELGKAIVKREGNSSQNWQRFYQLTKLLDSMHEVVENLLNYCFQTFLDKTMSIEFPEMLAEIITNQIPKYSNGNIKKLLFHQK
Assay: Human Glucocorticoid Receptor (GR) Assay, fluorescence polarization
Assay type: binding
Settings: GS Red tracer, incubated 2 h at r.t., XLfit model 205, read-out: GRhuFL_FP_v2 Mean IC50
Summary of the method: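 Fluorescence polarization kit assay: recombinant GR and GS Red fluorescent ligand with Stabilizing Peptide and DTT in potassium phosphate/sodium molybdate/EDTA screening buffer. Plates incubated 2 h in the dark at r.t.; DMSO served as 0% and dexamethasone as 100% control.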

Structure (SMILES) | pIC50
COc1c(C)cc([C@@H](Oc2ccc3c(cnn3-c3ccc(F)cc3)c2)[C@H](C)NC(=O)C(C)(C)C)cc1C [Example 182, N-[(1R,2S)-1-[1-(4-fluorophenyl)indazol-5-yl]oxy-1-(4-methoxy-3,5-dimethyl-phenyl)propan-2-yl]-2,2-dimethyl-propanamide] | 8.26
C[C@H](NC(=O)C(C)(C)C)[C@H](Oc1ccc2c(cnn2-c2ccc(F)cc2)c1)c1cc(F)cc(Cl)c1 [Example 184, N-[(1R,2S)-1-(3-chloro-5-fluoro-phenyl)-1-[1-(4-fluorophenyl)indazol-5-yl]oxy-propan-2-yl]-2,2-dimethyl-propanamide] | 8.29
Cc1cccc([C@@H](Oc2ccc3c(cnn3-c3ccc(F)cc3)c2)[C@H](C)NC(=O)C(C)(C)C)c1 [Example 185, N-[(1R,2S)-1-[1-(4-fluorophenyl)indazol-5-yl]oxy-1-(3-methylphenyl)propan-2-yl]-2,2-dimethyl-propanamide] | 8.26
C[C@H](NC(=O)C(C)(C)C)[C@H](Oc1ccc2c(cnn2-c2ccc(F)cc2)c1)c1ccc(C(C)(C)C)cc1 [Example 186, N-[(1R,2S)-1-[1-(4-fluorophenyl)indazol-5-yl]oxy-1-(4-tert-butylphenyl)propan-2-yl]-2,2-dimethyl-propanamide] | 8.18
CCCc1ccc([C@@H](Oc2ccc3c(cnn3-c3ccc(F)cc3)c2)[C@H](C)NC(=O)C(C)(C)C)cc1 [Example 188, N-[(1R,2S)-1-[1-(4-fluorophenyl)indazol-5-yl]oxy-1-(4-propylphenyl)propan-2-yl]-2,2-dimethyl-propanamide] | 8.14
C[C@H](NC(=O)C(C)(C)C)[C@H](Oc1ccc2c(cnn2-c2ccc(F)cc2)c1)c1ccc2c(c1)OCO2 [Example 189, N-[(1R,2S)-1-benzo[1,3]dioxol-5-yl-1-[1-(4-fluorophenyl)indazol-5-yl]oxy-propan-2-yl]-2,2-dimethyl-propanamide] | 8.11
Cc1cc([C@@H](Oc2ccc3c(cnn3-c3ccc(F)cc3)c2)[C@H](C)NC(=O)C(C)(C)C)ccc1Cl [Example 191, N-[(1R,2S)-1-(4-chloro-3-methyl-phenyl)-1-[1-(4-fluorophenyl)indazol-5-yl]oxy-propan-2-yl]-2,2-dimethyl-propanamide] | 8.23
Cc1cnc(C(=O)N[C@@H](C)[C@H](Oc2ccc3c(cnn3-c3ccc(F)cc3)c2)c2ccc(F)c(F)c2)s1 [Example 193, N-[(1R,2S)-1-(3,4-difluorophenyl)-1-[1-(4-fluorophenyl)indazol-5-yl]oxy-propan-2-yl]-5-methyl-1,3-thiazole-2-carboxamide] | 8.19
Cc1ccc(C)c([C@@H](Oc2ccc3c(cnn3-c3ccc(F)cc3)c2)[C@H](C)NC(=O)c2ncc(C)s2)c1 [Example 196, N-[(1R,2S)-1-(2,5-dimethylphenyl)-1-[1-(4-fluorophenyl)indazol-5-yl]oxy-propan-2-yl]-5-methyl-1,3-thiazole-2-carboxamide] | 8.21
Cc1ccc([C@@H](Oc2ccc3c(cnn3-c3ccc(F)cc3)c2)[C@H](C)NC(=O)c2ncc(C)s2)c(C)c1 [Example 197, N-[(1R,2S)-1-(2,4-dimethylphenyl)-1-[1-(4-fluorophenyl)indazol-5-yl]oxy-propan-2-yl]-5-methyl-1,3-thiazole-2-carboxamide] | 8.31
Cc1cnc(C(=O)N[C@@H](C)[C@H](Oc2ccc3c(cnn3-c3ccc(F)cc3)c2)c2cccc(Cl)c2)s1 [Example 199, N-[(1R,2S)-1-(3-chlorophenyl)-1-[1-(4-fluorophenyl)indazol-5-yl]oxy-propan-2-yl]-5-methyl-1,3-thiazole-2-carboxamide] | 8.13
Cc1cnc(C(=O)N[C@@H](C)[C@H](Oc2ccc3c(cnn3-c3ccc(F)cc3)c2)c2ccc(F)cc2C)s1 [Example 200, N-[(1R,2S)-1-(4-fluoro-2-methyl-phenyl)-1-[1-(4-fluorophenyl)indazol-5-yl]oxy-propan-2-yl]-5-methyl-1,3-thiazole-2-carboxamide] | 8.34
Cc1cnc(C(=O)N[C@@H](C)[C@H](Oc2ccc3c(cnn3-c3ccc(F)cc3)c2)c2cc(F)ccc2C)s1 [Example 201, N-[(1R,2S)-1-(5-fluoro-2-methyl-phenyl)-1-[1-(4-fluorophenyl)indazol-5-yl]oxy-propan-2-yl]-5-methyl-1,3-thiazole-2-carboxamide] | 8.23
COc1ccc(F)cc1[C@@H](Oc1ccc2c(cnn2-c2ccc(F)cc2)c1)[C@H](C)NC(=O)c1ncc(C)s1 [Example 202, N-[(1R,2S)-1-(5-fluoro-2-methoxy-phenyl)-1-[1-(4-fluorophenyl)indazol-5-yl]oxy-propan-2-yl]-5-methyl-1,3-thiazole-2-carboxamide] | 8.28

Now from value to molecule:

pIC50 | Structure (SMILES)
8.49 | COc1ccc(F)cc1[C@@H](Oc1ccc2c(cnn2-c2ccc(F)cc2)c1)[C@H](C)NC(=O)C(C)(C)C [Example 181, N-[(1R,2S)-1-(5-fluoro-2-methoxy-phenyl)-1-[1-(4-fluorophenyl)indazol-5-yl]oxy-propan-2-yl]-2,2-dimethyl-propanamide]
8.34 | C[C@H](NC(=O)C(C)(C)C)[C@H](Oc1ccc2c(cnn2-c2ccc(F)cc2)c1)c1ccc(Cl)cc1 [Example 183, N-[(1R,2S)-1-(4-chlorophenyl)-1-[1-(4-fluorophenyl)indazol-5-yl]oxy-propan-2-yl]-2,2-dimethyl-propanamide]
8.35 | COc1ccccc1[C@@H](Oc1ccc2c(cnn2-c2ccc(F)cc2)c1)[C@H](C)NC(=O)C(C)(C)C [Example 187, N-[(1R,2S)-1-[1-(4-fluorophenyl)indazol-5-yl]oxy-1-(2-methoxyphenyl)propan-2-yl]-2,2-dimethyl-propanamide]
8.35 | Cc1c(F)cccc1[C@@H](Oc1ccc2c(cnn2-c2ccc(F)cc2)c1)[C@H](C)NC(=O)C(C)(C)C [Example 190, N-[(1R,2S)-1-(3-fluoro-2-methyl-phenyl)-1-[1-(4-fluorophenyl)indazol-5-yl]oxy-propan-2-yl]-2,2-dimethyl-propanamide]
8.37 | Cc1cnc(C(=O)N[C@@H](C)[C@H](Oc2ccc3c(cnn3-c3ccc(F)cc3)c2)c2ccc(C)c(C)c2)s1 [Example 192, N-[(1R,2S)-1-(3,4-dimethylphenyl)-1-[1-(4-fluorophenyl)indazol-5-yl]oxy-propan-2-yl]-5-methyl-1,3-thiazole-2-carboxamide]
8.41 | Cc1cnc(C(=O)N[C@@H](C)[C@H](Oc2ccc3c(cnn3-c3ccc(F)cc3)c2)c2ccc(C)c(F)c2)s1 [Example 194, N-[(1R,2S)-1-(3-fluoro-4-methyl-phenyl)-1-[1-(4-fluorophenyl)indazol-5-yl]oxy-propan-2-yl]-5-methyl-1,3-thiazole-2-carboxamide]
8.48 | Cc1cnc(C(=O)N[C@@H](C)[C@H](Oc2ccc3c(cnn3-c3ccc(F)cc3)c2)c2cccc(F)c2)s1 [Example 195, N-[(1R,2S)-1-(3-fluorophenyl)-1-[1-(4-fluorophenyl)indazol-5-yl]oxy-propan-2-yl]-5-methyl-1,3-thiazole-2-carboxamide]
8.42 | COc1ccc([C@@H](Oc2ccc3c(cnn3-c3ccc(F)cc3)c2)[C@H](C)NC(=O)c2ncc(C)s2)cc1F [Example 198, N-[(1R,2S)-1-(3-fluoro-4-methoxy-phenyl)-1-[1-(4-fluorophenyl)indazol-5-yl]oxy-propan-2-yl]-5-methyl-1,3-thiazole-2-carboxamide]
